Values after ≈ are worked out from the molar mass of the structure shown.
Key:
[1] = tested on: Mycobacterium tuberculosis; assay: Antitubercular activity against XDR Mycobacterium tuberculosis assessed as bacterial growth inhibition; assay type: functional
[2] = Oral bioavailability in mouse; assay type: ADME, organism-based; conditions: in vivo
[3] = tested on: Mycobacterium tuberculosis; assay: Antibacterial activity against Mycobacterium tuberculosis H37Rv cytochrome bd oxidase assessed as reduction in total cellular ATP level; assay type: functional, organism-based
[4] = Half life in mouse; assay type: ADME, organism-based; conditions: in vivo
[5] = tested on: Mycobacterium tuberculosis; assay: Inhibition of wild type Mycobacterium tuberculosis mc2 6020 cytochrome bd oxidase assessed as inhibition of oxygen consumption rate at 10 to 25 uM measured after 5 days by Methylene blue dye based assay; conditions: dose 10-25 µM, time 5.0 day
[6] = tested on: Mycobacterium tuberculosis; assay: Antitubercular activity against Mycobacterium tuberculosis H37Rv assessed as inhibition of bacterial growth; assay type: functional
[7] = tested on: Mycobacterium tuberculosis; assay: Antibacterial activity against Mycobacterium tuberculosis H37Rv assessed as inhibition of bacterial growth; assay type: functional
[8] = tested on: Mycobacterium tuberculosis; assay: Antibacterial activity against Mycobacterium tuberculosis clinical isolate N0145 assessed as reduction in bacterial growth; assay type: functional, organism-based
[9] = tested on: Mycobacterium tuberculosis; assay: Antibacterial activity against Mycobacterium tuberculosis H37Rv assessed as reduction in bacterial growth; assay type: functional, organism-based
[10] = tested on: Mycobacterium tuberculosis; assay: Antibacterial activity against Mycobacterium tuberculosis H37Rv assessed as reduction in bacterial growth incubated for 7 days by broth dilution method; assay type: functional; conditions: 168 h, time 7 day
[11] = tested on: Mycobacterium tuberculosis; assay: Antibacterial activity against Mycobacterium tuberculosis H37Rv mc2 6206 assessed as inhibition of bacterial growth by resazurin dye based assay; assay type: functional
[12] = tested on: Mycobacterium tuberculosis; assay: Antimycobacterial activity against Mycobacterium tuberculosis Rv0678; assay type: functional
[13] = tested on: Mycobacterium tuberculosis; assay: Antibacterial activity against Mycobacterium tuberculosis clinical isolate N0145 assessed as reduction in ATP level; assay type: functional, organism-based

## FC(F)(F)c1ccc(Oc2ccc(Nc3ncnc4ccccc34)cc2)cc1
[1]
  MIC: ≤ 1 µM
[2]
  bioavailability: 58%
[3]
  IC50: 2.8 µM
[4]
  half-life: 64 h

## CC(C)=CCC/C(C)=C/CC/C(C)=C/Cc1c(C)[nH]c2ccccc2c1=O [AURACHIN D]
[5]
  inhibition: 60%
[6]
  MIC: > 100 µg/mL
[7]
  MIC: > 100 µg/mL

## CC(C)(C)c1ccc(CCNc2ncnc3ccccc23)cc1
[8]
  IC50: 0.1 µM
[9]
  IC50: 5.8 µM

## CC(C)(C)c1ccc(CCNc2ncnc3ccsc23)cc1
[8]
  IC50: 8.5 µM
[9]
  IC50: 5.8 µM

## NC(=O)NC(=O)c1nc(-c2cc3ccccc3o2)c(N)nc1N
[10]
  MIC: 4 µM (≈ 1.25 µg/mL)
[11]
  MIC: 9 µM (≈ 2.81 µg/mL)
[12]
  MIC: 12 µM (≈ 3.75 µg/mL)

## CCc1nc2ccc(Cl)cn2c1C(=O)NCc1ccc(N2CCC(c3ccc(OC(F)(F)F)cc3)CC2)cc1 [TELACEBEC]
[5]
  inhibition: 60%
[13]
  IC50: 0.1 µM
[6]
  MIC: 0.0015 µM

## Fc1ccc2c(NCCc3ccc(OC(F)(F)F)cc3)ncnc2c1
[8]
  IC50: 0.2 µM
[9]
  IC50: 7.6 µM

Reference: ChEMBL document CHEMBL5344478, “Cytochrome bd oxidase: an emerging anti-tubercular drug target” (RSC Med Chem, 2024)
